Measurements reported in article PMC5557808 (Nature Communications, 2017).
Where a SMILES comes first, the peptide text is derived from it. [ ]: non-standard residue; d: D form. The star is where a group is joined. X1 = CC[N+](CC)(CC(=O)Nc1c(C)cccc1C)Cc1cccc(C(=O)*)c1; Aha = [N-]=[N+]=NCC[C@H](N)C(=O)O

Biological target: T1, Leucine aminopeptidase (AP) (Sus scrofa, UniProt P15145)
T1 construct: Leucine aminopeptidase (AP; Mw = 280 kDa) from porcine kidney; purchased Sigma-Aldrich Chemie, Schnelldorf, Germany; host or cells: porcine kidney (tissue-derived)
T1 sequence (P15145 1-963): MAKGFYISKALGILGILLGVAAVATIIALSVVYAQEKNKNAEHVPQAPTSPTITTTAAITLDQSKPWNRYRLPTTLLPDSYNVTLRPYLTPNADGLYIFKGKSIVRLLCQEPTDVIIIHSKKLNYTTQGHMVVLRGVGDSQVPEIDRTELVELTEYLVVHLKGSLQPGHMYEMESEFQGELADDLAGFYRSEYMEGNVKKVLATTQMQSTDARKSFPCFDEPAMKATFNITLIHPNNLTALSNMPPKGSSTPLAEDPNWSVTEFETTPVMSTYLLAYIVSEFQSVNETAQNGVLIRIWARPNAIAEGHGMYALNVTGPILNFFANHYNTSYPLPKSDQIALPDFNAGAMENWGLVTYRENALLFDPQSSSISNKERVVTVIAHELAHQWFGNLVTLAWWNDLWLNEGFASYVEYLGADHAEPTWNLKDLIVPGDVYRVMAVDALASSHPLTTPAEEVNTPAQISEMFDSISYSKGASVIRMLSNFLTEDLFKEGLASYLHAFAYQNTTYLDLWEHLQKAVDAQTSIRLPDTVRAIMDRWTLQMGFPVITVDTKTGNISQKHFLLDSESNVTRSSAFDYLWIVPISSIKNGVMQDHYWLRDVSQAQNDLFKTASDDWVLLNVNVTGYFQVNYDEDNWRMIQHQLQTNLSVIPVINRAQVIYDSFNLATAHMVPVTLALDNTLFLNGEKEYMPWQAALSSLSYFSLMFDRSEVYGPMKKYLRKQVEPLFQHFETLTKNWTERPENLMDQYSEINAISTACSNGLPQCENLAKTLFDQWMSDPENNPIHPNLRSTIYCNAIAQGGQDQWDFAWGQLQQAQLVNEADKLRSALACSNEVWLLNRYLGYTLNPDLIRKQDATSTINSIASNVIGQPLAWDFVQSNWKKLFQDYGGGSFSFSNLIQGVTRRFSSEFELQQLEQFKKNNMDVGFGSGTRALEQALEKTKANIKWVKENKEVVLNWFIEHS
Experiment: Aminopeptidase (AP) incubation
Type: biochemical, porcine
Settings: AP 3.1 nM (0.87 µg/mL), 30 min, 37 °C, after 22 h with 1800 ng/mL MMP-8; LC-MS
Procedure: Leucine aminopeptidase (AP; Mw = 280 kDa) from porcine kidney dissolved in AP buffer (50 mM Tris-HCl, 1 mM CaCl2, and 150 mM NaCl at pH 7.0) was used. L-leucine-p-nitroanilide (0.125 mg/mL) was used as control substrate. For AP digestion, 1 mg of purified lyophilized peptide was diluted in 2 mL AP buffer resulting in a final concentration of 0.5 mg/mL substrate. To evaluate the impact of AP concentration on peptide cleavage, AP was added at concentrations of 0 (negative control), 0.87, 8.7, 39, and 78 µg/mL and the samples were incubated at 37 °C for 1 h. For analysis of the AP incubation time, an AP concentration of 0.87 µg/mL was used and analyzed after 10, 20 min and 1, 2, 3, and 6 h. To stop the enzyme activity, samples were kept at 95 °C for 15 min. Afterwards, HPLC analyses were performed (as described in the Supplementary Information) to analyze the relative decrease of the main peak as compared to the negative control. Further details are given in the Supplementary Methods.
MMP -9) in a concentration of 0.4 ng/µL (50 µL) were mixed with MMP -8 buffer (37 µL), detection enz yme (5 µL) and substrate (8µL; all fro m Q uic kZ yme® ). The acti vi t y was meas ur ed for 12 hours in inter vals of 10 minutes. […]
Aminopeptidase (AP) incubation
Leucine A minopeptidase (AP; M w = 280 kD a) from porcine kidney dissolved in AP buffer (50 mM Tris-HCl, 1 mM CaCl2 and 150 mM NaCl at pH 7.0) was used. L-leu cin e-p-nitroan ilide (0.125mg/ mL) was used as control substr at e. […] Fo r anal ysis of the impact of AP incubation time, the identical conditions were used (AP concentration of 0.87 µg / mL (and analyzed after 10, 20 minutes and 1, 2, 3 and 6 hours ). To stop the enzymatic activit y, sa mp les wer e kept at 95 °C for 15 minutes. A fterwards, H PLC analys es were p erformed (as descr ibed) to an al yze th e relative d ecr eas e of the ma i n pea k as co mp ared to the negative control (see […]
V(B)/(V(A)+V(B)) = 5 % to 90 % over 10 min, V(B)/(V(A)+V(B)) = 90 % for 5 min, V(B)/(V(A)+V(B)) = 90 % to 5 % over 3 min. […] UV detection was measured at 254 nm. […]

effect of additional AP incubation after complete MMP-8 cleavage: no difference
SMILES: CC[C@H](C)[C@H](NC(=O)CNC(=O)[C@H](CCC(N)=O)NC(=O)[C@@H]1CCCN1C(=O)CNC(=O)c1cccc(C[N+](CC)(CC)CC(=O)Nc2c(C)cccc2C)c1)C(=O)N[C@@H](C)C(=O)NCC(=O)N[C@@H](CCC(N)=O)C(=O)N[C@@H](CCN=[N+]=[N-])C(=O)N[C@@H](CCC(N)=O)C(=O)O [ID #1c] (X1-GPQGIAGQ[Aha]Q-OH)
